Measurements published in ChEMBL document CHEMBL5523692, “Discovery of novel biaryl benzoxazepinones as dual-mode receptor-interacting protein kinase-1 (RIPK1) inhibitors” (Bioorg Med Chem, 2024).
Activity calls are given as the source filed them. No cut-off for these calls is given here.

Experiments:
[1] = tested on: HT-29; assay: Anti-necroptic activity against human HT-29 cells assessed as cell viability pretreated with compound followed by TNF-alpha/Smac mimetic/Z-VAD-FMK stimulation for 16 hrs by Cell Titer Glo assay; format: functional, cell-based
[2] = Cytotoxicity against human HT-29 cells by Cell Titer Glo assay; format: toxicity, cell-based
[3] = tested on: HT-29; assay: Anti-necroptic activity against human HT-29 cells assessed as cell viability upto 10 uM pretreated with compound followed by TNF-alpha/Smac mimetic stimulation for 24 hrs by Cell Titer Glo assay; format: functional, cell-based
[4] = tested on: Mus musculus; assay: Anti-necroptic activity in TNF-alpha/Z-VAD-FMK-induced SIRS C57BL/6J mouse model assessed as survival rate at 10 mg/kg, po pre-administered via gavage for 1 hr followed by […] of Z-VAD-FMK stimulation for 15 mins and subsequent TNF-alpha stimulation for 45 mins and re-current […] of Z-VAD-FMK stimulation measured after 4 hrs post- TNF-alpha stimulation relative to control; format: functional; conditions: 6 h, time 360 min
[5] = target: T1, Receptor-interacting serine/threonine-protein kinase 1 (Homo sapiens) (UniProt Q13546); assay: Inhibition of RIPK1 in human HT-29 cells assessed as decrease in RIPK3 phosphorylation at 10 nM preincubated for 6 hrs followed by TSZ stimulation by Western blot analysis relative to control; format: cell-based
T1 sequence (whole entry): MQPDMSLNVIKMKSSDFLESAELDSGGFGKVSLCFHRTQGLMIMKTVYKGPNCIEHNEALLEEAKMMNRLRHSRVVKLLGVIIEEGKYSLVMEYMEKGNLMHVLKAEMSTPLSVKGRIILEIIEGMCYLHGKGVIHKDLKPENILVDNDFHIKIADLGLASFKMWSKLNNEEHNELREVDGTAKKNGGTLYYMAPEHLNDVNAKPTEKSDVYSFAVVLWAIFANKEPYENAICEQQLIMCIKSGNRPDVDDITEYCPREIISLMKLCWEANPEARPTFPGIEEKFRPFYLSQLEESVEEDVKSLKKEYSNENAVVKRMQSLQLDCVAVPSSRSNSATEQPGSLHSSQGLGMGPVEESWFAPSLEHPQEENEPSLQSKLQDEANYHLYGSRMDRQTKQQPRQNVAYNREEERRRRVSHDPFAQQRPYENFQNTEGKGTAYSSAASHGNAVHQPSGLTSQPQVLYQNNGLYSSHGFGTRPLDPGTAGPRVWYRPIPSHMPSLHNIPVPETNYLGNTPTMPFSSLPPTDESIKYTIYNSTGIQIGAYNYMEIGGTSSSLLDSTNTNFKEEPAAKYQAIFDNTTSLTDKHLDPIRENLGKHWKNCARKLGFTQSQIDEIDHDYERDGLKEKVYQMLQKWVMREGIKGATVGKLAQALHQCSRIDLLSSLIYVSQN

[6] = target: T1, Receptor-interacting serine/threonine-protein kinase 1 (Homo sapiens); assay: Inhibition of RIPK1 in human HT-29 cells assessed as decrease in MLKL phosphorylation at 10 nM preincubated for 6 hrs followed by TSZ stimulation by Western blot analysis relative to control; format: cell-based
[7] = target: T1, Receptor-interacting serine/threonine-protein kinase 1 (Homo sapiens); assay: Inhibition of RIPK1 phosphorylation in human HT-29 cells preincubated for 6 hrs followed by TSZ stimulation by Western blot analysis; format: cell-based; conditions: dose 1-10 nM
[8] = tested on: Mus musculus; assay: Anti-necroptic activity in TNF-alpha/Z-VAD-FMK-induced SIRS C57BL/6J mouse model assessed as decrease in serum IL-1beta level at 2.5 to 10 mg/kg, po pre-administered via gavage for 1 hr followed by […] of Z-VAD-FMK stimulation for 15 mins and subsequent TNF-alpha stimulation for 45 mins and re-current […] of Z-VAD-FMK stimulation measured after 4 hrs post- TNF-alpha stimulation by ELISA; format: functional, organism-based; conditions: dose 2.5-10 mg/kg, time 360.0 min
[9] = tested on: HT-29; assay: Anti-necroptic activity against human HT-29 cells assessed as cell viability pretreated with compound followed by TNF-alpha/Smac mimetic/Z-VAD-FMK stimulation for 12 hrs by Cell Titer Glo assay; format: functional, cell-based; conditions: dose 0.39-50 nM
[10] = target: T1, Receptor-interacting serine/threonine-protein kinase 1 (Homo sapiens); assay: Inhibition of RIPK1 in human HT-29 cells assessed as decrease in MLKL phosphorylation preincubated for 6 hrs followed by TSZ stimulation by Western blot analysis relative to control; format: cell-based; conditions: dose 1-10 nM
[11] = tested on: HT-29; assay: Anti-necroptic activity against human HT-29 cells assessed as cell viability pretreated with compound followed by TNF-alpha/Cycloheximide/Z-VAD-FMK stimulation for 16 hrs by Cell Titer Glo assay; format: functional, cell-based; conditions: dose 0.39-50 nM
[12] = tested on: Mus musculus; assay: Anti-necroptic activity in TNF-alpha/Z-VAD-FMK-induced SIRS C57BL/6J mouse model assessed as decrease in serum IL-6 level at 2.5 to 10 mg/kg, po pre-administered via gavage for 1 hr followed by […] of Z-VAD-FMK stimulation for 15 mins and subsequent TNF-alpha stimulation for 45 mins and re-current […] of Z-VAD-FMK stimulation measured after 4 hrs post- TNF-alpha stimulation by ELISA; format: functional, organism-based; conditions: dose 2.5-10 mg/kg, time 360.0 min
[13] = tested on: Mus musculus; assay: Anti-necroptic activity in TNF-alpha/Z-VAD-FMK-induced SIRS C57BL/6J mouse model assessed as survival rate at 2.5 mg/kg, po pre-administered via gavage for 1 hr followed by […] of Z-VAD-FMK stimulation for 15 mins and subsequent TNF-alpha stimulation for 45 mins and re-current […] of Z-VAD-FMK stimulation measured after 4 hrs post- TNF-alpha stimulation relative to control; format: functional; conditions: 6 h, time 360 min
[14] = target: T1, Receptor-interacting serine/threonine-protein kinase 1 (Homo sapiens); assay: Inhibition of RIPK1 phosphorylation in human HT-29 cells at 10 nM preincubated for 6 hrs followed by TSZ stimulation by Western blot analysis relative to control; format: cell-based
[15] = tested on: Mus musculus; assay: Anti-necroptic activity in TNF-alpha/Z-VAD-FMK-induced SIRS C57BL/6J mouse model assessed as decrease in hypothermia at 2.5 to 10 mg/kg, po pre-administered via gavage for 1 hr followed by […] of Z-VAD-FMK stimulation for 15 mins and subsequent TNF-alpha stimulation for 45 mins and re-current […] of Z-VAD-FMK stimulation measured after 2 to 3 hrs post- TNF-alpha stimulation; format: functional, organism-based; conditions: dose 2.5-10 mg/kg, time 240-300 min
[16] = tested on: L-292; assay: Anti-necroptic activity against mouse […] cells assessed as cell viability pretreated with compound followed by TNF-alpha/Z-VAD-FMK stimulation for 12 hrs by Cell Titer Glo assay; format: functional, cell-based; conditions: dose 0.078-10 µM
[17] = tested on: HT-29; assay: Anti-necroptic activity against human HT-29 cells assessed as cell viability upto 10 uM pretreated with compound followed by TNF-alpha/Cycloheximide stimulation for 36 hrs by Cell Titer Glo assay; format: functional, cell-based
[18] = target: T1, Receptor-interacting serine/threonine-protein kinase 1 (Homo sapiens); assay: Inhibition of RIPK1 in human HT-29 cells assessed as decrease in RIPK3 phosphorylation preincubated for 6 hrs followed by TSZ stimulation by Western blot analysis; format: cell-based; conditions: dose 1-10 nM
[19] = target: T1, Receptor-interacting serine/threonine-protein kinase 1 (Homo sapiens); assay: Inhibition of RIPK1 phosphorylation in human HT-29 cells assessed as decrease in necrosomes development at 10 nM incubated for 6 hrs by Western blot analysis; format: cell-based
[20] = tested on: Mus musculus; assay: Anti-necroptic activity in TNF-alpha/Z-VAD-FMK-induced SIRS C57BL/6J mouse model assessed as survival rate at 5 mg/kg, po pre-administered via gavage for 1 hr followed by […] of Z-VAD-FMK stimulation for 15 mins and subsequent TNF-alpha stimulation for 45 mins and re-current […] of Z-VAD-FMK stimulation measured after 4 hrs post- TNF-alpha stimulation relative to control; format: functional; conditions: 6 h, time 360 min

CN1C(=O)[C@@H](NC(=O)c2n[nH]c(Cc3ccccc3)n2)COc2ccc(-c3ccccc3)cc21
EC50 [1]: 8.3 nM
CC50 [2]: > 100000 nM

CN1C(=O)[C@@H](NC(=O)c2n[nH]c(Cc3ccccc3)n2)COc2ccc(-c3ccoc3)cc21
EC50 [1]: 3.4 nM
CC50 [2]: > 100000 nM

CN1C(=O)[C@@H](NC(=O)c2n[nH]c(Cc3ccccc3)n2)COc2ccc(-c3ccco3)cc21
EC50 [1]: 3.8 nM
CC50 [2]: > 100000 nM

CN1C(=O)[C@@H](NC(=O)c2n[nH]c(Cc3ccccc3)n2)COc2ccc(-c3ccc(O)cc3)cc21
EC50 [1]: 29.9 nM
CC50 [2]: > 100000 nM

CN1C(=O)[C@@H](NC(=O)c2n[nH]c(Cc3ccccc3)n2)COc2ccc(-c3ccc(F)cc3)cc21
EC50 [1]: 9.8 nM
CC50 [2]: > 100000 nM

COc1ccccc1-c1ccc2c(c1)N(C)C(=O)[C@@H](NC(=O)c1n[nH]c(Cc3ccccc3)n1)CO2
EC50 [1]: 10 nM
CC50 [2]: > 100000 nM

CN1C(=O)[C@@H](NC(=O)c2n[nH]c(Cc3ccccc3)n2)COc2ccc(-c3cccc(Cl)c3)cc21
EC50 [1]: 56.8 nM
CC50 [2]: > 100000 nM

Cc1ccccc1-c1ccc2c(c1)N(C)C(=O)[C@@H](NC(=O)c1n[nH]c(Cc3ccccc3)n1)CO2
EC50 [1]: 82.7 nM
CC50 [2]: > 100000 nM

CN1C(=O)[C@@H](NC(=O)c2n[nH]c(Cc3ccccc3)n2)COc2ccc(-c3cccc(-c4ccccc4)c3)cc21
EC50 [1]: 27.3 nM
CC50 [2]: > 100000 nM

COc1ccc(-c2ccc3c(c2)N(C)C(=O)[C@@H](NC(=O)c2n[nH]c(Cc4ccccc4)n2)CO3)cc1
EC50 [1]: 3.5 nM
CC50 [2]: > 100000 nM

CN1C(=O)[C@@H](NC(=O)c2n[nH]c(Cc3ccccc3)n2)COc2ccc(-c3ccc(-c4ccccc4)cc3)cc21
EC50 [1]: 32.9 nM
CC50 [2]: > 100000 nM

CN1C(=O)[C@@H](NC(=O)c2n[nH]c(Cc3ccccc3)n2)COc2ccc(-c3cccc(C#N)c3)cc21
EC50 [1]: 8.3 nM
CC50 [2]: > 100000 nM

CN1C(=O)[C@@H](NC(=O)c2n[nH]c(Cc3ccccc3)n2)COc2ccc(-c3ccncc3)cc21
EC50 [1]: 3.3 nM
CC50 [2]: > 100000 nM

Cc1cccc(C)c1-c1ccc2c(c1)N(C)C(=O)[C@@H](NC(=O)c1n[nH]c(Cc3ccccc3)n1)CO2
EC50 [1]: > 100 nM
CC50 [2]: > 100000 nM

COc1cccc(-c2ccc3c(c2)N(C)C(=O)[C@@H](NC(=O)c2n[nH]c(Cc4ccccc4)n2)CO3)c1
EC50 [1]: 3 nM
CC50 [2]: > 100000 nM

CN1C(=O)[C@@H](NC(=O)c2n[nH]c(Cc3ccccc3)n2)COc2ccc(-c3ccccc3O)cc21
EC50 [1]: 60 nM
CC50 [2]: > 100000 nM

CN1C(=O)[C@@H](NC(=O)c2n[nH]c(Cc3ccccc3)n2)COc2ccc(-c3ccccc3F)cc21
EC50 [1]: 7.6 nM
CC50 [2]: > 100000 nM

CN1C(=O)[C@@H](NC(=O)c2n[nH]c(Cc3ccccc3)n2)COc2ccc(-c3ccc(C#N)cc3)cc21
Activity [3]: inactive
survival at 10 mg/kg [4]: 100%
inhibition [5]: 100%
inhibition [6]: 100%
inhibition [7]: Dose-Dependent Effect
Activity [8]: Active
Activity [9]: Dose-Dependent Effect
inhibition [10]: Dose-Dependent Effect
Activity [11]: Dose-Dependent Effect
Activity [12]: Active
survival at 2.5 mg/kg [13]: 66%
inhibition [14]: 100%
Activity [15]: Active
EC50 [1]: 1.7 nM
Activity [16]: Dose-Dependent Effect
Activity [17]: inactive
inhibition [18]: Dose-Dependent Effect
inhibition [19]: Active
survival at 5 mg/kg [20]: 91%
CC50 [2]: > 100000 nM

Cc1ccc(-c2ccc3c(c2)N(C)C(=O)[C@@H](NC(=O)c2n[nH]c(Cc4ccccc4)n2)CO3)cc1
EC50 [1]: 10.9 nM
CC50 [2]: > 100000 nM

CN1C(=O)[C@@H](NC(=O)c2n[nH]c(Cc3ccccc3)n2)COc2ccc(-c3ccc(Cl)cc3)cc21
EC50 [1]: 12.5 nM
CC50 [2]: > 100000 nM

CN1C(=O)[C@@H](NC(=O)c2n[nH]c(Cc3ccccc3)n2)COc2ccc(-c3ccccc3Cl)cc21
EC50 [1]: 20.3 nM
CC50 [2]: > 100000 nM

CN1C(=O)[C@@H](NC(=O)c2n[nH]c(Cc3ccccc3)n2)COc2ccc(-c3ccccc3C#N)cc21
EC50 [1]: 3 nM
CC50 [2]: > 100000 nM

CN1C(=O)[C@@H](NC(=O)c2n[nH]c(Cc3ccccc3)n2)COc2ccc(-c3cccc(F)c3)cc21
EC50 [1]: 8.8 nM
CC50 [2]: > 100000 nM

CN1C(=O)[C@@H](NC(=O)c2n[nH]c(Cc3ccccc3)n2)COc2ccc(-c3cncnc3)cc21
EC50 [1]: 5.8 nM
CC50 [2]: > 100000 nM

CN1C(=O)[C@@H](NC(=O)c2n[nH]c(Cc3ccccc3)n2)COc2ccc(-c3ccccc3-c3ccccc3)cc21
EC50 [1]: > 100 nM
CC50 [2]: > 100000 nM

Cc1cccc(-c2ccc3c(c2)N(C)C(=O)[C@@H](NC(=O)c2n[nH]c(Cc4ccccc4)n2)CO3)c1
EC50 [1]: 14.1 nM
CC50 [2]: > 100000 nM

CN1C(=O)[C@@H](NC(=O)c2n[nH]c(Cc3ccccc3)n2)COc2ccc(-c3cccc(O)c3)cc21
EC50 [1]: 11.7 nM
CC50 [2]: > 100000 nM
